Test results as given in patent publication US20050215626A1, “Substituted benzofuran oximes” (WYETH, priority 2003, published 2005).

target: human PAI-1 (Homo sapiens, UniProt P05121); assay: Assay for determining the IC50 of inhibition of PAI-1 (active PAI-1 bound to tPA-coated plate, antibody detection); assay type: biochemical; conditions: inhibition of Plasminogen Activator Inhibitor-1; test compounds 1-50 μM incubated with human PAI-1 (50 ng/ml), pH 7.5, human tPA-coated plate
Method: This assay is based upon the non-SDS dissociable interaction between tPA and active PAI-1. Assay plates are initially coated with human tPA (10 μg/ml). Test compounds are dissolved in DMSO at 10 mM, then diluted with physiologic buffer (pH 7.5) to a final concentration of 1-50 μM. The test compounds are incubated with human PAI-1 (50 ng/ml) for 15 minutes at room temperature. The tPA-coated plate is washed with a solution of 0.05% Tween 20 and 0.1% BSA, then the plate is blocked with a solution of 3% BSA. An aliquot of the test compound/PAI-1 solution is then added to the tPA-coated plate, incubated at room temperature for 1 hour, and washed. Active PAI-1 bound to the plate is assessed by adding an aliquot of a 1:1000 dilution of the 33B8 monoclonal antibody against human PAI-1, and incubating the plate at room temperature for 1 hour (Molecular Innovations, Royal Oak, Mich.). The plate is again washed, and a solution of goat anti-mouse IgG-alkaline phosphatase conjugate is added at a 1:50,000 dilution in goat serum. The plate is incubated 30 minutes at room temperature, washed, and a solution of alkaline phosphatase substrate is added. The plate is incubated 45 minutes at room temperature, and color development is determined at OD405 nm. The quantitation of active PAI-1 bound to tPA at varying concentrations of the test compound is used to determine the IC50. Results are analyzed using a logarithmic best-fit equation. The assay sensitivity is 5 ng/mi of human PAI-1 as determined from a standard curve ranging from 0-100 ng/ml.

Sequence of human PAI-1 (P05121 24-402): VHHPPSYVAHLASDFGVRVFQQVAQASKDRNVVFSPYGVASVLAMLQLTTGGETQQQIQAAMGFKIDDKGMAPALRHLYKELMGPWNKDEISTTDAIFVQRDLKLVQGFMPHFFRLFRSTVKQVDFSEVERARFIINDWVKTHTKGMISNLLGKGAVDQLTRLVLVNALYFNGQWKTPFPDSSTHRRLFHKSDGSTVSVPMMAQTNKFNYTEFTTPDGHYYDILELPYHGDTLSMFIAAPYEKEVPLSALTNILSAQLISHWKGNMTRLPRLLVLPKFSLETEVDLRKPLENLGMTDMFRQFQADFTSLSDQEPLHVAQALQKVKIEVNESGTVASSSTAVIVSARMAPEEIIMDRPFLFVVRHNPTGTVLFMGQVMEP

Row | Compound | IC50 [µM]
1 | CCCCc1oc2ccccc2c1/C=N/OCCCOc1ccc(C(=O)O)c(O)c1 [Compound 3, 4-[3({[(1E)-(2-butyl-1-benzofuran-3-yl)methylidene]amino}oxy)propoxy]-2-hydroxybenzoic acid] | 19.2
2 | CCCCc1oc2ccccc2c1/C=N/OCc1ccc(C(=O)O)c(Br)c1 [Compound 5, 2-bromo-4-[({[(1E)-(2-butyl-1-benzofuran-3-yl)methylidene]amino}oxy)methyl]benzoic acid] | 29.2

Continued by falling IC50, values first:

Row | IC50 [µM] | Compound
3 | 44.4 | CCCCc1oc2ccccc2c1/C=N/OCCCOc1ccc(C(=O)O)c(NC(=O)c2ccc(C(C)(C)C)cc2)c1 [Compound 1, 4-[3-({[(1E)-(2-butyl-1-benzofuran-3-yl)methylidene]amino}oxy)propoxy]-2-[(4-tert-butylbenzoyl)amino]-benzoic acid]
4 | 31.4 | CCCCc1oc2ccccc2c1/C=N/OCCCOc1ccc(CC(=O)O)cc1 [Compound 2, {4-[3-({[(1E)-(2-butyl-1-benzofuran-3-yl)methylidene]amino}oxy)propoxy]phenyl}acetic acid]
5 | 24.8 | CCCCc1oc2ccccc2c1/C=N/OCCOc1ccc(C(=O)O)cc1Cl [Compound 4, 4-[2-({[(1E)-(2-butyl-1-benzofuran-3-yl)methylidene]amino]oxy)ethoxy]-3-chlorobenzoic acid]
6 | 17.5 | CCCCc1oc2ccccc2c1/C=N/OCCCOc1ccc(C(=O)O)cc1-c1ccc(C(F)(F)F)cc1 [Compound 6, 6-[3-({[(1E)-(2-butyl-1-benzofuran-3-yl)methylidene]amino}oxy)propoxy]-4′-(trifluoromethyl)-1,1′-biphenyl-3-carboxylic acid]
